Experimental data taken from patent US20020102688A1, “Methods and products for the synthesis of oligosaccharide structures on glycoproteins, glycolipids, or as free molecules, and for the isolation of cloned genetic sequences that determine these structures” (The Regents of the University of Michigan, priority 1990, published 2002).

How the values were obtained:
Fuc-TIV [1] = molecular target: T1, Fuc-TIV (Homo sapiens, UniProt P22083); assay: Fucosyltransferase assay, extracts of COS-1 cells transfected with pCDNA1-Fuc-TIV; type: biochemical; parameters: expressed in transfected cells; host or cells: COS-1 cells, transient transfection, 1% Triton X-100 extract; settings: for Relative Activity (%) with Fuc-TIV: relative product formation rate, N-acetyllactosamine = 100, acceptor 20 mM (2-fucosyllactose 5 mM), GDP-[14C]fucose 3 μM, transfected COS-1 cell extract; for fucosyltransferase activity with acceptor substrate: standard assay, extracts of pCDNA1-Fuc-TIV transfected COS-1 cells, acceptor 20 mM; for fucose transfer to acceptor: pCDNA1-Fuc-TIV COS-1 extracts with relatively large activity toward N-acetyllactosamine
T1 sequence (P22083 1-405 isoform P22083-2): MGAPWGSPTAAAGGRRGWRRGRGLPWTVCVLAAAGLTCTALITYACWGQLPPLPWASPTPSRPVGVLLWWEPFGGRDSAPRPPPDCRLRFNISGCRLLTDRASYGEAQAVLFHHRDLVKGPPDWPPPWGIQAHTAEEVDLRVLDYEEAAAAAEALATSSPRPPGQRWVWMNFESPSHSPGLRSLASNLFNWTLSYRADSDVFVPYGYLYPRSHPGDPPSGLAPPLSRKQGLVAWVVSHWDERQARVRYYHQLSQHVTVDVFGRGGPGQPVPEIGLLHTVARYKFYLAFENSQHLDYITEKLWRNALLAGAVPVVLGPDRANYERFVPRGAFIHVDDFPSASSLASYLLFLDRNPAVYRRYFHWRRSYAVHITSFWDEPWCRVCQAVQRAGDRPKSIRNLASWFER
Protocol: (§1) Cell extracts containing 1% Triton X-100 were prepared from transfected COS-1 cells. Fucosyltransferase assays were performed in a total volume of 20 μl, and contained 50 mM sodium cacodylate, pH 6.2, 5 mM ATP, 10 mM fucose, 20 mM MnCl2, 3 μM GDP-^14C-fucose, and 5 μl (30 μg protein) of cell extract. Acceptor substrates were added to a final concentration of 20 mM. Reactions were incubated at 37° C. for 1 hour and terminated by addition of 20 μl ethanol, followed by addition of 600 μl of distilled water. An aliquot of each reaction (50 μl) was subjected to scintillation counting to determine total radioactivity in the reaction. Another aliquot (200 μl) was applied to a column containing 400 μl of Dowex IX2-400, formate form. The flow through fraction, and […] of a subsequent water elution, were collected and pooled, and an aliquot was subjected to scintillation counting to quantitate incorporation of radioactive fucose into neutral product. Descending paper chromatography was used to confirm the structure of the product formed with the acceptor N-acetyllactosamine. The neutral product in the Dowex column eluate was concentrated by lyophilization, resuspended in a small volume of water, and fractionated through Whatman No. 40 in phenol/isopropanol/formic acid/water (85:5:10:100, lower layer). After chromatography (40 hours), the air-dried chromatogram was cut into 1 cm strips and the strips eluted into 2 ml of water. Radioactivity in each eluate was determined by scintillation counting after mixing with 10 ml of scintillation cocktail.
Table 2 presents the relative product formation rates obtained with low molecular weight acceptor substrates using cell extracts containing recombinant human α(1,3)fucosyltransferases expressed in transfected COS-1 cells, as described in the preceding sections. Fucosyltransferase assays were performed as described in detail in Lowe et al, J. Biol. Chem., (1991), 266:17467-17477; Weston et al, J. Biol. Chem. (1992), 267:4152-4160; and Kukowska-Latallo et al, Genes. Devel., (1990), 4:1288-1303. For each enzyme, the same extract was used, with saturating amounts of each acceptor oligosaccharide (20 mM, except for 2′-fucosylactose which was used at 5 mM), and GDP-^14C]fucose was present at 3 μM. Reaction times and enzyme amounts were adjusted to ensure a linear rate of product formation (less than 15% of the GDP-fucose substrate consumed). Products were separated by column chromatography and quantitated by liquid scintillation counting, and their structures were confirmed by high performance liquid chromatography, as described in Lowe et al, J. Biol. Chem., (1991), 266:17467-17477; Weston et al, J. Biol. Chem. (1992), 267:4152-4160; and Kukowska-Latallo et al, Genes. Devel., (1990), 4:1288-1303.

[2] = system: monoclonal anti-H antibody; assay: Hapten inhibition of anti-H antibody binding to mH1-12 cells (indirect immunofluorescence); parameters: species or system mouse; settings: antibody preincubated with hapten, 20 mM
Protocol: Immunofluoroscence was performed on cells plated on 8-well tissue culture chamber slides (Lab-Tek). Cells were plated at a density of 5×10^4/well 24 h prior to analysis. Anti-H and anti-A primary antibodies were diluted in PBS containing bovine serum albumin at 2 mg/ml, to a final concentration of 10 μg/ml. Cell-bound primary antibodies were detected with FITC-conjugated goat anti-mouse IgM, diluted to 40 μg/ml in PBS containing 2 mg/ml bovine serum albumin.
Hapten Inhibition—Plated cells were washed twice with PBS, and were incubated for 30 min at 4° C. with 100 μl of diluted anti-H antibody, or with 100 μl of diluted antibody containing different oligosaccharide haptens, each at a concentration of 20 mM. The chambers were then washed twice, and 100 μl of FITC-conjugated goat anti-mouse IgM was added. After 30 min at 4° C., the chambers were washed three times with PBS, and the cells were fixed at room temperature for 10 min in 3.7% formaldehyde in PBS. The cells were washed twice with PBS, the chambers were removed, and the slide was mounted in PBS containing 25% glycerol. Cells were examined by fluorescence microscopy using a Zeiss Axiophot photomicroscope equipped with fluorescence epiillumination.

Fuc-TIV [3] = molecular target: T1, Fuc-TIV; assay: Fucosyltransferase assay, extracts of CHO-FT3 cells (CHO transfected with pCDNA1-Fuc-TIV); type: biochemical; parameters: expressed in transfected cells; settings: standard assay, CHO-FT3 cell extracts
Protocol: CHO Ade-C cells were transfected with Scal-linearized pCDM7-Fuc-TIV, co-precipitated in a 10-fold molar excess over EcoRI-linearized pSV2-Neo. A single, clonal, SSEA-1-positive cell line (CHO-FT3) was derived from this population. Cell extracts prepared from CHO-FT3 contained substantial amounts of α(1,3)fucosyltransferase activity when assayed with the acceptor N-acetyllactosamine.
as §1

Compound | Relative Activity (%) with Fuc-TIV (Fuc-TIV [1]) | fucosyltransferase activity with acceptor substrate (Fuc-TIV [1]) | inhibition of anti-H antibody binding to mH1-12 cells by hapten [2] | fucose transfer to acceptor (Fuc-TIV [1]) | α(1,3)fucosyltransferase activity with acceptor substrate (Fuc-TIV [3])
CC(=O)N[C@@H]1[C@@H](O[C@@H]2O[C@H](CO)[C@H](O)[C@H](O)[C@H]2O)[C@H](O)[C@@H](CO)O[C@@H]1O [lacto-N-biose I] | <1% | trace amount | – | – | –
CC(=O)N[C@H]1C(O)O[C@H](CO)[C@@H](O[C@@H]2O[C@H](CO)[C@H](O)[C@H](O)[C@H]2O)[C@@H]1O (some centres unmarked) [N-acetyllactosamine] | 100% | 296 pmol/mg/h | does not inhibit | 474 pmol/mg/h | 59.1 pmol/mg/h
CC(=O)NC1C(O)OC(CO)C(OC2OC(CO)C(O)C(OC3(C(=O)O)CC(O)C(NC(C)=O)C(C(O)C(O)CO)O3)C2O)C1O (stereo not drawn) [α(2,3)sialyllactosamine, NeuAcα(2→3)Galβ(1→4)GlcNAc] | <1% | – | – | less than 1 pmol/mg-h | –
OC[C@H]1O[C@@H](O[C@H]2[C@H](O)[C@@H](O)C(O)O[C@@H]2CO)[C@H](O)[C@@H](O)[C@H]1O (some centres unmarked) [lactose] | 3% | 10 pmol/mg/h | does not inhibit | – | 2.0 pmol/mg/h
Fucα(1,2)Galβ(1,4)Glc [2-fucosyllactose] | 6% | 17 pmol/mg/h | blocked | – | 5.8 pmol/mg/h
